Results published in PubChem BioAssay (NCI).
Where “and” joins values, the source holds several entries; their conditions need not be identical. Identical values can stand only once.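 Briefly, cells in 96-well plates were exposed to five compound concentrations for 48 h, and endpoints were estimated by linear interpolation. The concentration for 50% growth inhibition is given as GI50. TGI marks complete inhibition of growth.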

Legend:
Assay in all cases: NCI tumour cell line growth inhibition, 48 h
[1] = tested on: MCF7 breast
[2] = tested on: 786-0 renal
[3] = tested on: HOP-62 NSCLC
[4] = tested on: BT-549 breast
[5] = tested on: HOP-92 NSCLC
[6] = tested on: MDA-MB-231 breast
[7] = tested on: ACHN renal
[8] = tested on: PC-3 prostate
[9] = tested on: SW-620 colon
[10] = tested on: SF-268 CNS

Structure (SMILES) | GI50 [1] | TGI [1] [µM] | GI50 [2] | TGI [2] | GI50 [3] [µM] | TGI [3] [µM] | GI50 [4] [µM] | TGI [4] [µM] | GI50 [5] [µM] | TGI [5] | GI50 [6] | TGI [6] [µM] | GI50 [7] | TGI [7] | GI50 [8] | TGI [8] [µM] | GI50 [9] [µM] | TGI [9] [µM] | GI50 [10] | TGI [10]
Clc1ccc(N/N=C/c2ccccn2)nc1 | 0.338 µM | > 100 | 0.339 µM | > 100 µM | 0.421 | > 80.3 | 0.554 | > 55 | 0.608 | > 100 µM | 0.463 µM | > 100 | 0.379 µM | > 100 µM | 0.578 µM | > 100 | 0.468 | > 100 | 0.365 µM | > 100 µM
COc1cccc(C2=NN(C(C)=O)C(c3cc(OC)c(OC)c(OC)c3)C2)c1 (centres undefined) | 0.529 µM | > 32.3 | 2.63 µM | > 20.6 µM | 0.827 |  | 5.57 | > 100 | 14.9 | > 100 µM | 8.82 µM | > 100 | 16 µM | > 100 µM | 1.71 µM | > 100 | 0.668 | > 100 | 10.8 µM | > 100 µM
CC(C)[C@@H]1NC(=O)[C@]2(C)CSC(=N2)c2csc(n2)CNC(=O)C[C@@H](/C=C/CCS)OC1=O | 0.274 µM | > 100 | 0.454 µM | > 100 µM | 0.0453 | > 29.1 | 0.397 | > 100 | 0.137 | 0.677 µM | 0.317 µM | > 47.4 | 1.75 µM | 9.12 µM | 0.0577 µM | > 100 | 0.227 | 2.28 | 0.181 µM | > 100 µM
Oc1ccc(Cl)cc1Cc1cc(Cl)cc(Cc2cc(Cl)ccc2O)c1O |  | 6.98 |  | 11.3 µM |  | 10.9 |  | 9.61 |  | 5.94 µM |  | 8.83 |  | 7.64 µM |  | 7.7 |  | 13.5 |  | 12 µM
O=C1C(CN(Cc2ccccc2)Cc2ccccc2)CCCC1CN(Cc1ccccc1)Cc1ccccc1 (centres undefined) | 20.3 µM and > 100 µM | > 100 | 16.8 µM and 55.1 µM | 32.9 µM and > 100 µM |  | > 100 |  | > 100 |  | > 52.1 µM and 82.5 µM | > 100 µM and 38.3 µM | > 100 | 15.9 µM and > 85.3 µM | 25.7 µM and > 100 µM | > 100 µM and 41.5 µM | > 100 | > 100 | > 100 | 33.3 µM and > 100 µM | 53 µM and > 100 µM
O=[N+]([O-])c1ccc(Oc2cccnc2)c([N+](=O)[O-])c1 | 3.74 µM | 17.6 | 3.43 µM | 26.5 µM | 5.95 | 27.9 | 3.73 | 29 | 2.29 | 13 µM | 2.9 µM | 11.6 | 3.34 µM | 13 µM | 4.98 µM | 36.4 | 3.27 | 12.5 | 4.2 µM | 36.4 µM
NC(=O)c1ncn(C2OC(CO)C(O)C2O)n1 (centres undefined) | 36.4 µM | > 100 | > 100 µM | > 100 µM | > 100 | > 100 | > 100 | > 100 | > 100 | > 100 µM | > 100 µM | > 100 | 59.8 µM | > 100 µM | 59.6 µM | > 100 | 22.8 | > 100 |  | 
O=[n+]1cnn([O-])c2ccccc21 |  | 44.4 |  | 42.1 µM |  | 49.9 |  | 54.4 |  |  |  | 31 |  | 36.9 µM |  | > 100 |  | 46.1 |  | > 100 µM
S=c1cn[nH]c2ccc(Br)cc12 |  | > 100 |  | > 100 µM |  | > 100 |  | > 100 |  | > 100 µM |  | > 100 |  | > 100 µM |  |  |  | > 100 |  | > 100 µM
N#Cc1cc(-c2ccccc2)[nH]c1-c1nccc2ccccc12 | 5.76 µM | > 100 | 26.9 µM | > 100 µM | 29 | > 100 | 10.1 | > 100 |  |  | 19.4 µM | > 100 | 18.5 µM | > 100 µM | 11.8 µM | > 100 | 61.5 | > 100 | 22.6 µM | > 100 µM
O=C(Nc1cccc(-n2cc(-c3ccncc3)c(-c3cc(O)cc(Cl)c3)n2)c1)Nc1ccc(Cl)c(Cl)c1 | 2.8 µM | 9.75 | 1.48 µM | 3.71 µM | 2.82 | 8.51 | 2.06 | 5.22 |  |  | 1.01 µM | 7.7 | 2.21 µM | 8.71 µM | 1.69 µM | 5.68 | 3.22 | 9.97 | 3.22 µM | 32.8 µM
COc1cc(-c2nn(C)nc2-c2cc3ccccc3s2)cc(OC)c1OC | 0.0403 µM | > 100 | 0.312 µM | > 100 µM | 0.553 | > 100 |  |  | 0.0806 | 78.7 µM | 1.6 µM | > 100 | 0.293 µM | > 100 µM | 0.0779 µM | > 100 | 0.0633 | > 100 | 0.638 µM | > 100 µM
C=C1C(=O)O[C@H]2[C@H]1CC/C(COC(=O)NCc1c[nH]c3ccc(OC)cc13)=C\CC[C@@]1(C)O[C@@H]21 |  |  | 0.445 µM | 1.8 µM | 10.6 | 24.1 | 0.441 | 1.91 | 1.79 | 3.44 µM | 1.92 µM | 4.3 | 0.729 µM | 2.01 µM | 1.07 µM | 2.59 | 0.45 | 1.92 | 2.55 µM | 7.65 µM
